Results reported in patent publication US8518896B2, “Treatment of cancers of the blood using selected glycomimetic compounds” (Glycomimetics, Inc., priority 2008, dated 2013).

Test system: neutrophils
Settings: mice; 5-FU 150 mg/kg i.p. or cyclophosphamide 300 mg/kg i.p.; lasts for at least one week
Description: At varying time points after treatment, blood samples are taken from the mice and analyzed for different cell types including neutrophils.
As diagrammed in FIG. 10, mice are treated with Compound #2 for 14 days by intraperitoneal injections (50 mg/kg) twice a day. On day 12 within this treatment period, a cohort of mice receives an injection of a chemotherapeutic drug; either 5-fluorouracil (150 mg/kg i.p.) or cyclophosphamide (300 mg/kg i.p.). On the third day after treatment with Compound #2, blood is obtained by cardiac puncture from one cohort of mice to determine a complete blood count (CBC). Other cohorts of mice are bled and analyzed (CBC) on days 5, 7, 9 and 15 after Compound #2 treatment.

Structure (SMILES): O=P1(N(CCCl)CCCl)NCCCO1 (stereo not shown) [cyclophosphamide]
- neutropenia caused by the chemotherapeutic drug: severe neutropenia
